Results published in the supplement of paper PMC11061612.

Columns and labels:
Experiment in all cases: combination Emax (second highest fraction inhibited in the dose matrix, 72 h); higher = more inhibition; extreme values may be limits of the assay
[1] = test system: MDA-MB-231 (Breast Carcinoma)
Summary of the method: (§1)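 Cell lines in DMEM/F12 or RPMI with 10% FBS were plated in 1536-well plates, held 24 hours at 37°C, 5% CO2, then given two-drug dose matrices for 72 hours (DMSO typically 0.2%). Viability was read by CellTiter-Glo 2.0 luminescence and scaled as inhibition from 0 (vehicle wells) to 1 (blank wells). Combination Emax is the second-highest inhibition in the matrix; Bliss excess is observed combination effect minus expected EA + EB − EA·EB, EA and EB being single-agent effects.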

[2] = test system: KARPAS-620 (Plasma Cell Myeloma)
Summary of the method: as §1

SN12C (Kidney Carcinoma) = test system: SN12C (Kidney Carcinoma)
Summary of the method: as §1

[3] = test system: DOV13 (Ovarian Carcinoma)
Summary of the method: as §1

[4] = test system: MFH-ino (Other Solid Carcinomas)
Summary of the method: as §1

DSH1 (Bladder Carcinoma) = test system: DSH1 (Bladder Carcinoma)
Summary of the method: as §1

[5] = test system: C3A (Hepatocellular Carcinoma)
Summary of the method: as §1

CAL-78 (Chondrosarcoma) = test system: CAL-78 (Chondrosarcoma)
Summary of the method: as §1

SK-N-FI (Neuroblastoma) = test system: SK-N-FI (Neuroblastoma)
Summary of the method: as §1

[6] = test system: DB (B-Cell Non-Hodgkin's Lymphoma)
Summary of the method: as §1

[7] = test system: JiyoyeP-2003 (Burkitt's Lymphoma)
Summary of the method: as §1

[8] = test system: LS-513 (Colorectal Carcinoma)
Summary of the method: as §1

[9] = test system: EM-2 (Chronic Myelogenous Leukemia)
Summary of the method: as §1

[10] = test system: NCI-H1793 (Lung Adenocarcinoma)
Summary of the method: as §1

[11] = test system: SUIT-2 (Pancreatic Carcinoma)
Summary of the method: as §1

[12] = test system: TE-5 (Esophageal Squamous Cell Carcinoma)
Summary of the method: as §1

[13] = test system: NCI-H1299 (Non-Small Cell Lung Carcinoma)
Summary of the method: as §1

[14] = test system: LU-99A (Non-Small Cell Lung Carcinoma)
Summary of the method: as §1

[15] = test system: 697 (B-Lymphoblastic Leukemia)
Summary of the method: as §1

J82 (Bladder Carcinoma) = test system: J82 (Bladder Carcinoma)
Summary of the method: as §1

Row | Structure (SMILES) | combination Emax [1] | combination Emax [2] | combination Emax (SN12C (Kidney Carcinoma)) | combination Emax [3] | combination Emax [4] | combination Emax (DSH1 (Bladder Carcinoma)) | combination Emax [5] | combination Emax (CAL-78 (Chondrosarcoma)) | combination Emax (SK-N-FI (Neuroblastoma)) | combination Emax [6] | combination Emax [7] | combination Emax [8] | combination Emax [9] | combination Emax [10] | combination Emax [11] | combination Emax [12] | combination Emax [13] | combination Emax [14] | combination Emax [15] | combination Emax (J82 (Bladder Carcinoma))
1 | CC1(C)CCC(CN2CCN(c3ccc(C(=O)NS(=O)(=O)c4ccc(NCC5CCOCC5)c([N+](=O)[O-])c4)c(Oc4cnc5[nH]ccc5c4)c3)CC2)=C(c2ccc(Cl)cc2)C1 [Venetoclax] + C[C@@H](Nc1cc(F)cc(F)c1)c1cc(C(=O)N(C)C)cc2c(=O)cc(N3CCOCC3)oc12 [AZD8186] (first compound max 1 µM, 7x7, partner max 3 µM) | 0.137 | 1 | 0.174 | 0.306 | 0.0981 | 0.282 | 0.296 | 0.212 | 0.243 | 0.943 | 0.527 | 0.491 | 0.256 | 0.221 | 0.0137 | 0.375 | 0.149 | 0.234 | 0.986 | 0.14
2 | COc1nnc2ccc(N3CCC(c4ccc(OCCN5CCN(C)C(=O)[C@H]5C)cc4)CC3)nn12 [AZD5153] + CC1(C)CCC(CN2CCN(c3ccc(C(=O)NS(=O)(=O)c4ccc(NCC5CCOCC5)c([N+](=O)[O-])c4)c(Oc4cnc5[nH]ccc5c4)c3)CC2)=C(c2ccc(Cl)cc2)C1 [Venetoclax] (first compound max 1 µM, 7x7, partner max 1 µM) | 0.661 | 0.927 | 0.318 | 0.477 | 0.415 | 0.623 | 0.453 | 0.457 | 0.629 | 0.991 | 0.833 | 0.568 | 0.918 | 0.248 | 0.371 | 0.412 | 0.691 | 0.456 | 1 | 0.308
3 | CC1(C)CCC(CN2CCN(c3ccc(C(=O)NS(=O)(=O)c4ccc(NCC5CCOCC5)c([N+](=O)[O-])c4)c(Oc4cnc5[nH]ccc5c4)c3)CC2)=C(c2ccc(Cl)cc2)C1 [Venetoclax] + Cn1cnc2c(F)c(Nc3ccc(Br)cc3Cl)c(C(=O)NOCCO)cc21 [Selumetinib] (first compound max 1 µM, 7x7, partner max 3 µM) | 0.38 | 1 | 0.206 | 0.157 | 0.201 | 0.341 | 0.434 | 0.146 | 0.471 | 0.914 | 0.304 | 0.717 | 0.424 | 0.199 | 0.26 | 0.107 | 0.202 | 0.324 | 1 | 0.122
4 | C[C@@H](c1ccc2nccn2c1)n1nnc2ncc(-c3cnn(C)c3)nc21 [Savolitinib] + CC1(C)CCC(CN2CCN(c3ccc(C(=O)NS(=O)(=O)c4ccc(NCC5CCOCC5)c([N+](=O)[O-])c4)c(Oc4cnc5[nH]ccc5c4)c3)CC2)=C(c2ccc(Cl)cc2)C1 [Venetoclax] (first compound max 1 µM, 7x7, partner max 1 µM) | 0.306 | 0.776 | 0.219 | 0.143 | 0.171 | 0.286 | 0.148 | 0.187 | 0.192 | 0.741 | 0.162 | 0.0791 | 0.132 | 0.193 | 0.168 | 0.123 | 0.14 | 0.0525 | 1 | 0.145
5 | Cc1c2c(nn1C)CSCc1cc(n(C)n1)CSc1cc(c3ccccc3c1)OCCCc1c(C(=O)O)n(C)c3c-2c(Cl)ccc13 [AZD5991] + Cn1cnc2c(F)c(Nc3ccc(Br)cc3Cl)c(C(=O)NOCCO)cc21 [Selumetinib] (first compound max 1 µM, 7x7, partner max 3 µM) | 0.4 | 1 | 0.246 | 0.252 | 0.358 | 0.489 | 0.487 | 0.717 | 0.565 | 1 | 0.675 | 0.796 | 0.609 | 0.244 | 0.285 | 0.287 | 0.3 | 0.379 | 1 | 0.197
6 | Cc1c2c(nn1C)CSCc1cc(n(C)n1)CSc1cc(c3ccccc3c1)OCCCc1c(C(=O)O)n(C)c3c-2c(Cl)ccc13 [AZD5991] + C[C@@H]1COCCN1C2=NC(=NC(=C2)C3(CC3)[S@](=N)(=O)C)C4=C5C=CNC5=NC=C4 [AZD6738] (first compound max 1 µM, 7x7, partner max 10 µM) | 0.546 | 1 | 0.228 | 0.926 | 0.524 | 0.919 | 0.437 | 0.796 | 0.815 | 0.999 | 0.965 | 0.752 | 0.98 | 0.488 | 0.424 | 0.494 | 0.71 | 0.572 | 1 | 0.389
